Experimental data published in patent US9382254B2, “Compounds and pharmaceutical compositions thereof for the treatment of cystic fibrosis” (Galapagos NV, priority 2013, dated 2016).

What follows are compounds tested against T1, CFTR ΔF508 mutant (Homo sapiens, UniProt P13569, DEL508-508) (assay: YFP-halide influx assay for the CFTR-ΔF508 mutation, gluconate buffer). Details: CFBE41o- cells, forskolin 10.67 μM.
T1 construct: expressed in transfected cells; host or cells: CFBE41o- (adenoviral transduction)
Format: cell-based
Description: The YFP halide influx assay measures the functionality of the cystic fibrosis Transmembrane Conductance regulator (CFTR) channels in the cystic fibrosis bronchial epithelium cell line CFBE41o-. The assay is used to evaluate the capacity of compounds to increase the open probability of existing CFTR channels in the membrane. It makes use of the observation that the yellow fluorescent protein (YFP) variant YFP H148Q, I152L has its fluorescence substantially quenched by halide ions like Cl^− and I^−. (Galietta, Haggie, & Verkman, 2001) (Nagai, et al., 2002)
For this purpose, CFBE41o-cells are seeded in 96 well plates (6000 CFBE cells/well). One day after seeding, the CFBE cells are transduced with adenoviral vectors that direct the expression of the CFTR ΔF508 mutant and of the YFP reporter. Cells are incubated at 27° C., 5% CO2 for 24 hours so as to allow for the proper folding and migration to the membrane of the CFTR channel or treated with a CFTR modulator during 24 hours at 37° C.
The I^−-induced quenching of fluorescence is recorded immediately after injection of I^− for 7 seconds. The capacity of a compound to increase the channel opening is directly correlated with the decrease in fluorescence, and is expressed as (1-(fluorescence after 7 seconds (F)/fluorescence before injection (F0))) and an EC50 can be derived from a (1-F/F0) vs compound concentration plot.

T1 sequence (P13569 with tags, fused parts or gaps DEL508-508): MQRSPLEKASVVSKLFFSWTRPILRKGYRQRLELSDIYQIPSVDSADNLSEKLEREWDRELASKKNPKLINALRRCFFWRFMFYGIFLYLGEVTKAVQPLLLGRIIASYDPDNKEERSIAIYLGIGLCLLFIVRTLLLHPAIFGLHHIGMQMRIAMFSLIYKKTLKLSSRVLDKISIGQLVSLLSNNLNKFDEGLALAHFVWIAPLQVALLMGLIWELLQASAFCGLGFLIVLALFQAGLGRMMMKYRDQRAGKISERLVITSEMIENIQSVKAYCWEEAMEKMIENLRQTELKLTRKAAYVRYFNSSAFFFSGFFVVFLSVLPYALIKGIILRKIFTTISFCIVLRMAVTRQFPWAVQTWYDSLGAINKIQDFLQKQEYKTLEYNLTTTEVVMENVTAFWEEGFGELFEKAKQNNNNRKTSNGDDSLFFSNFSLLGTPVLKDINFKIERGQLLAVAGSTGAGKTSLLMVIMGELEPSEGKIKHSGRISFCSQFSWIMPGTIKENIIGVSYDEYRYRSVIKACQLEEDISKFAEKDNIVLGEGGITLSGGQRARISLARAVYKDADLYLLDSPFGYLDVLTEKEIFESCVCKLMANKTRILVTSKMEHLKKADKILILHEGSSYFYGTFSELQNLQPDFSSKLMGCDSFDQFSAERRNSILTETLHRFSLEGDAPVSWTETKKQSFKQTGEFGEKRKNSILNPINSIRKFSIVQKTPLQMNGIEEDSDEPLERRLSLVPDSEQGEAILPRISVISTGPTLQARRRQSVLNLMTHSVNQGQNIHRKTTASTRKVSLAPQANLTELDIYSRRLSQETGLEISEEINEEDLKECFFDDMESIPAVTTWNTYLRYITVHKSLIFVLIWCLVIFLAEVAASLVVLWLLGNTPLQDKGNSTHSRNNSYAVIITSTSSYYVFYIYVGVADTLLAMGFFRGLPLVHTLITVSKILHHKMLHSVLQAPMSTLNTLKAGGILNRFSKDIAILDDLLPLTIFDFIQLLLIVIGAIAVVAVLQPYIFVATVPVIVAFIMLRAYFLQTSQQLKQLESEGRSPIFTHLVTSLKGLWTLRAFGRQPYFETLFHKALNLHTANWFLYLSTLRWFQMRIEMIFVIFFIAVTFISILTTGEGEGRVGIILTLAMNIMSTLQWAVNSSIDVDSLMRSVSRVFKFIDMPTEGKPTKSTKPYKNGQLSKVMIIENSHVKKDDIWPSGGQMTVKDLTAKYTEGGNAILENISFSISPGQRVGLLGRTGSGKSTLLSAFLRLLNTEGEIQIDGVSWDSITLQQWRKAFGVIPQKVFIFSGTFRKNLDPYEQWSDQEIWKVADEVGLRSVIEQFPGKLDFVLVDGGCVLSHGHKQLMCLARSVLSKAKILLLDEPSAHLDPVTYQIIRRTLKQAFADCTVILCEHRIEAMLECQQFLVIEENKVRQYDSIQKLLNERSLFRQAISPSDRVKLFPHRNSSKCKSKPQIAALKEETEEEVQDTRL

SMILES | EC50
NC(=O)c1cc(S(=O)(=O)N2CCCCC2)sc1NC(=O)c1ccccc1Cl [Compound 17, 2-(2-chlorobenzamido)-5-(piperidin-1-ylsulfonyl)thiophene-3-carboxamide] | 0.265 µM
COc1cccc(C(=O)Nc2sc(S(=O)(=O)N3CCCCC3)cc2C(N)=O)c1 [Compound 18, 2-(3-methoxybenzamido)-5-(piperidin-1-ylsulfonyl)thiophene-3-carboxamide] | 0.472 µM
NC(=O)c1cc(S(=O)(=O)N2CCCCC2)sc1NC(=O)c1ccccc1F [Compound 19, 2-(2-fluorobenzamido)-5-(piperidin-1-ylsulfonyl)thiophene-3-carboxamide] | 0.118 µM
NC(=O)c1cc(S(=O)(=O)N2CCCCC2)sc1NC(=O)c1ccc(Cl)cc1 [Compound 20, 2-(4-chlorobenzamido)-5-(piperidin-1-ylsulfonyl)thiophene-3-carboxamide] | 0.392 µM
COc1ccc(C(=O)Nc2sc(S(=O)(=O)N3CCCCC3)cc2C(N)=O)cc1 [Compound 21, 2-(4-methoxybenzamido)-5-(piperidin-1-ylsulfonyl)thiophene-3-carboxamide] | 0.484 µM
N#Cc1ccc(C(=O)Nc2sc(S(=O)(=O)N3CCCCC3)cc2C(N)=O)cc1 [Compound 22, 2-(4-cyanobenzamido)-5-(piperidin-1-ylsulfonyl)thiophene-3-carboxamide] | 0.317 µM
CC(C)(C)c1ccc(C(=O)Nc2sc(S(=O)(=O)N3CCCCC3)cc2C(N)=O)s1 [Compound 23, 5-tert-butyl-N-(3-carbamoyl-5-(piperidin-1-ylsulfonyl)thiophen-2-yl) thiophene-2-carboxamide] | 0.642 µM
COc1ccccc1C(=O)Nc1sc(S(=O)(=O)N2CCCCC2)cc1C(N)=O [Compound 24, 2-(2-methoxybenzamido)-5-(piperidin-1-ylsulfonyl)thiophene-3-carboxamide] | 0.772 µM
N#Cc1ccccc1C(=O)Nc1sc(S(=O)(=O)N2CCCCC2)cc1C(N)=O [Compound 25, 2-(2-cyanobenzamido)-5-(piperidin-1-ylsulfonyl)thiophene-3-carboxamide] | 0.945 µM
NC(=O)c1cc(S(=O)(=O)N2CCCCC2)sc1NC(=O)c1ccc(F)cc1 [Compound 26, 2-(4-fluorobenzamido)-5-(piperidin-1-ylsulfonyl)thiophene-3-carboxamide] | 0.289 µM
CC(C)(C)c1ccc(C(=O)Nc2sc(S(=O)(=O)N3CCCCC3)cc2C(N)=O)cc1 [Compound 27, 2-(4-tert-butylbenzamido)-5-(piperidin-1-ylsulfonyl)thiophene-3-carboxamide] | 0.29 µM
CCCC(=O)Nc1sc(S(=O)(=O)N2CCCCC2)cc1C(N)=O [Compound 28, 2-butyramido-5-(piperidin-1-ylsulfonyl)thiophene-3-carboxamide] | 0.624 µM
CC(C)(C)C(=O)Nc1sc(S(=O)(=O)N2CCCCC2)cc1C(N)=O [Compound 29, 5-(piperidin-1-ylsulfonyl)-2-pivalamidothiophene-3-carboxamide] | 0.272 µM
Cn1ccc(C(=O)Nc2sc(S(=O)(=O)N3CCCCC3)cc2C(N)=O)n1 [Compound 30, N-(3-carbamoyl-5-(piperidin-1-ylsulfonyl)thiophen-2-yl)-1-methyl-1H-pyrazole-3-carboxamide] | 0.91 µM
CC1(C(=O)Nc2sc(S(=O)(=O)N3CCCCC3)cc2C(N)=O)CC1 [Compound 31, 2-(1-methylcyclopropanecarboxamido)-5-(piperidin-1-ylsulfonyl) thiophene-3-carboxamide] | 0.184 µM
NC(=O)c1cc(S(=O)(=O)N2CCCCC2)sc1NC(=O)Cc1ccc(F)cc1 [Compound 32, 2-(2-(4-fluorophenyl)acetamido)-5-(piperidin-1-ylsulfonyl)thiophene-3-carboxamide] | 1.5 µM

SMILES | EC50
Cc1nnc(C(=O)Nc2sc(S(=O)(=O)N3CCCCC3)cc2C(N)=O)o1 [Compound 33, N-(3-carbamoyl-5-(piperidin-1-ylsulfonyl)thiophen-2-yl)-5-methyl-1,3,4-oxadiazole-2-carboxamide] | 9.84 µM
NC(=O)c1cc(S(=O)(=O)N2CCCCC2)sc1NC(=O)c1cnccn1 [Compound 34, N-(3-carbamoyl-5-(piperidin-1-ylsulfonyl)thiophen-2-yl)pyrazine-2-carboxamide] | 0.29 µM
NC(=O)c1cc(S(=O)(=O)N2CCCCC2)sc1NC(=O)c1c[nH]cn1 [Compound 35, N-(3-carbamoyl-5-(piperidin-1-ylsulfonyl)thiophen-2-yl)-1H-imidazole-4-carboxamide] | 3.28 µM
NC(=O)c1cc(S(=O)(=O)N2CCCCC2)sc1NC(=O)C1CCC(F)(F)CC1 [Compound 37, 2-(4,4-difluorocyclohexanecarboxamide)-5-(piperidin-1-ylsulfonyl) thiophene-3-carboxamide] | 0.293 µM
NC(=O)c1cc(S(=O)(=O)N2CCCCC2)sc1NC(=O)C1(C(F)(F)F)CC1 [Compound 38, 5-(piperidin-1-ylsulfonyl)-2-(1-(trifluoromethyl)cyclopropanecarboxamido) thiophene-3-carboxamide] | 0.9 µM
NC(=O)c1cc(S(=O)(=O)N2CCCCC2)sc1NC(=O)c1ccc(F)s1 [Compound 39, N-(3-carbamoyl-5-(piperidin-1-ylsulfonyl)thiophen-2-yl)-5-fluorothiophene-2-carboxamide] | 0.293 µM
NC(=O)c1cc(S(=O)(=O)N2CCCCC2)sc1NC(=O)CCc1ccccc1 [Compound 40, 2-(3-phenylpropanamido)-5-(piperidin-1-ylsulfonyl) thiophene-3-carboxamide] | 0.574 µM
NC(=O)c1cc(S(=O)(=O)N2CCCCC2)sc1NC(=O)c1cnn2cccnc12 [Compound 41, N-(3-carbamoyl-5-(piperidin-1-ylsulfonyl)thiophen-2-yl)pyrazolo[1,5-a]pyrimidine-3-carboxamide] | 9.84 µM
NC(=O)c1cc(S(=O)(=O)N2CCCCC2)sc1NC(=O)C1CC1 [Compound 42, 2-(cyclopropanecarboxamido)-5-(piperidin-1-ylsulfonyl) thiophene-3-carboxamide] | 0.739 µM
CC(C)(C)n1cc(C(=O)Nc2sc(S(=O)(=O)N3CCCCC3)cc2C(N)=O)cn1 [Compound 43, 1-tert-butyl-N-(3-carbamoyl-5-(piperidin-1-ylsulfonyl)thiophen-2-yl)-1H-pyrazole-4-carboxamide] | 0.67 µM
NC(=O)c1cc(S(=O)(=O)N2CCCCC2)sc1NC(=O)C1CC(F)(F)C1 [Compound 44, 2-(3,3-difluorocyclobutanecarboxamido)-5-(piperidin-1-ylsulfonyl) thiophene-3-carboxamide] | 0.696 µM
CC1(C(=O)Nc2sc(S(=O)(=O)N3CCOCC3)cc2C(N)=O)CC1 [Compound 45, 2-(1-methylcyclopropanecarboxamido)-5-(morpholinosulfonyl) thiophene-3-carboxamide] | 1.28 µM
NC(=O)c1cc(S(=O)(=O)N2CCOCC2)sc1NC(=O)c1ccccc1F [Compound 46, 2-(2-fluorobenzamido)-5-(morpholinosulfonyl) thiophene-3-carboxamide] | 0.284 µM
CC(C)(C)C(=O)Nc1sc(S(=O)(=O)N2CCOCC2)cc1C(N)=O [Compound 47, 5-(morpholinosulfonyl)-2-pivalamidothiophene-3-carboxamide] | 2.66 µM
COc1ccccc1C(=O)Nc1sc(S(=O)(=O)N2CCOCC2)cc1C(N)=O [Compound 48, 2-(2-methoxybenzomido)-5-(morpholinosulfonyl) thiophene-3-carboxamide] | 0.253 µM
